Experimental data reported in patent US9884063B2, “Amido-substituted azole compounds” (Bayer Pharma Aktiengesellschaft, priority 2014, dated 2018).

Legend:
TNKS1 = target: T1, TNKS1 (Homo sapiens, UniProt O95271); assay: Modified TNKS1 Assay 2 (auto-parsylation, [3H]-NAD+ SPA); type: biochemical; settings: 6 nM TNKS1, 96 well
T1 sequence (O95271 1-1327): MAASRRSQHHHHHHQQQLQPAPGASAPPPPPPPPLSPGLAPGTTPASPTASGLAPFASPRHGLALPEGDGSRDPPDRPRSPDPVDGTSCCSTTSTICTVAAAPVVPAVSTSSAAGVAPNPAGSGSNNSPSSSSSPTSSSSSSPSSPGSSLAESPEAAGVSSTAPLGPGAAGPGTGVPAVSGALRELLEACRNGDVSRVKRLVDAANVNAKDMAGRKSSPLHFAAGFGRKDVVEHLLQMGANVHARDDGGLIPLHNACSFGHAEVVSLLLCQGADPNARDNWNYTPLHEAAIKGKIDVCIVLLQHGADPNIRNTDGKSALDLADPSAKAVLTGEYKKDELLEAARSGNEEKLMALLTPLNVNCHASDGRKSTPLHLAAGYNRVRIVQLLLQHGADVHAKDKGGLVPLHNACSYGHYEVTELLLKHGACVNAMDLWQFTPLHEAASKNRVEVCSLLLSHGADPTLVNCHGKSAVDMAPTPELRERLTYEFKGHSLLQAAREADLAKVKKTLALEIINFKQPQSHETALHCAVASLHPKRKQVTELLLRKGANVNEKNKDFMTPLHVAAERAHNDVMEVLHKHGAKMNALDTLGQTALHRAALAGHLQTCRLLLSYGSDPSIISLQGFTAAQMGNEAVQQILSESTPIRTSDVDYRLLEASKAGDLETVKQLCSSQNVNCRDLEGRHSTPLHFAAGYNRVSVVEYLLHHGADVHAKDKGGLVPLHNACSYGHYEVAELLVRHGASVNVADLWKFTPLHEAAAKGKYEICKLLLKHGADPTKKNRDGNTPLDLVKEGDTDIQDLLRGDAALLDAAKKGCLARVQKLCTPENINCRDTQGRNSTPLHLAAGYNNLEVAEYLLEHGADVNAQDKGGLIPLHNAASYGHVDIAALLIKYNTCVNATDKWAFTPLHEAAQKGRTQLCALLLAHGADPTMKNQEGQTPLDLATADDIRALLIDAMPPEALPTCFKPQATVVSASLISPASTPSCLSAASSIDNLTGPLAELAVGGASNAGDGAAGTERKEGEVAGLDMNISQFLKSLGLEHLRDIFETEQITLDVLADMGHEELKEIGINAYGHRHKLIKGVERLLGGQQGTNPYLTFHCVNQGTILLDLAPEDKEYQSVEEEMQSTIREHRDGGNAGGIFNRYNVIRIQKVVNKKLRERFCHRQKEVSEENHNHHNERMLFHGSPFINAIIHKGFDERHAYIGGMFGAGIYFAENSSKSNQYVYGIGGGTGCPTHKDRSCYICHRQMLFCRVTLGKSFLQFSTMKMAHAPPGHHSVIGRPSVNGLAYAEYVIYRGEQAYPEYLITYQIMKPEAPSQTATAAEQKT

[1] = tested on: HEK293 FOP control reporter cell line; assay: HEK293 FOP Assay (FOP control vector luciferase reporter); type: cell-based; settings: Homo sapiens
Procedure, shortened: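 Compound series 50 μM to 15 nM, 3.16-fold steps, were diluted in CAFTY buffer (pH 7.4, 2 mM Ca2+, 0.01% BSA) and tested alongside the TOP reporter line. Human Wnt-3a was added at 2500–5 ng/ml in two-fold steps. The control HEK293 line stably holds an FOP vector whose TCF elements are randomized and non-functional.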

[2] = HEK293 FOP control reporter cell line, 16 hours incubation, compound dilution series 50 μM to 15 nM
[3] = HEK293 FOP control reporter cells, 16 hours, luciferase, dilution series from 50 μM

IC50 (TNKS1) | Structure (SMILES) | IC50 [1, 2] | IC50 [1, 3]
0.15 µM | CC(C)N(CCNC(=O)c1nc[nH]c1C(=O)Nc1ccc(NC(=O)c2ccc(F)cc2Cl)cc1)C(C)C [Example 389, N^5-{4-[(2-chloro-4-fluorobenzoyl)amino]phenyl}-N^4-{2-[di(propan-2-yl)amino]ethyl}-1H-imidazole-4,5-dicarboxamide] | 11 µM | –
0.007 µM | C[C@@H]1CCCCN1CCNC(=O)c1[nH]cnc1C(=O)Nc1ccc(NC(=O)c2ccc(F)cc2Cl)cc1 [Example 267, N^4-{4-[(2-chloro-4-fluorobenzoyl)amino]phenyl}-N^5-{2-[(2R)-2-methylpiperidin-1-yl]ethyl}-1H-imidazole-4,5-dicarboxamide] | 20 µM | –
0.84 µM | O=C(Nc1ccc(NC(=O)c2[nH]cnc2C(=O)NCCN2CCCCC2)cc1)c1ccc(F)cc1I [Example 62, N^5-{4-[(4-fluoro-2-iodobenzoyl)amino]phenyl}-N^4-[2-(piperidin-1-yl)ethyl]-1H-imidazole-4,5-dicarboxamide] | 24 µM | –
0.01 µM | CN(C)CCNC(=O)c1nc[nH]c1C(=O)Nc1ccc(NC(=O)c2ccc(F)cc2Cl)cc1 [Example 22, N^4-{4-[(2-chloro-4-fluorobenzoyl)amino]phenyl}-N^5-[2-(dimethylamino)ethyl]-1H-imidazole-4,5-dicarboxamide] | – | ≥ 50 µM
> 10 µM | O=C(Nc1ccc(NC(=O)c2[nH]cnc2C(=O)NCCC2CCCC2)cc1)c1cc(F)c(F)cc1Cl [Example 48, N^5-{4-[(2-chloro-4,5-difluorobenzoyl)amino]phenyl}-N^4-(2-cyclopentylethyl)-1H-imidazole-4,5-dicarboxamide] | 17 µM | –
> 10 µM | CNC(=O)c1nc[nH]c1C(=O)Nc1ccc(NC(=O)c2ccccc2OC)cc1 [Example 60, N^5-{4-[(2-methoxybenzoyl)amino]phenyl}-N^4-methyl-1H-imidazole-4,5-dicarboxamide] | 9.75 µM | –
0.02 µM | Cc1nc(C(=O)Nc2ccc(NC(=O)c3ccc(F)cc3Cl)cc2)c(C(=O)NCCN(C)C)[nH]1 [Example 66, N^4-{4-[(2-chloro-4-fluorobenzoyl)amino]phenyl}-N^5-[2-(dimethylamino)ethyl]-2-methyl-1H-imidazole-4,5-dicarboxamide] | 6.2 µM | –
0.005 µM | C[C@@H]1CCCN(CCNC(=O)c2[nH]cnc2C(=O)Nc2ccc(NC(=O)c3ccc(F)cc3Cl)cc2)C1 [Example 278, N^4-{4-[(2-chloro-4-fluorobenzoyl)amino]phenyl}-N^5-{2-[(3R)-3-methylpiperidin-1-yl]ethyl}-1H-imidazole-4,5-dicarboxamide] | 25 µM | –
0.004 µM | Cc1nc(C(=O)Nc2ccc(NC(=O)c3ccc(F)cc3Cl)cc2)c(C(=O)NCCN2CCCCC2)[nH]1 [Example 67, N^4-{4-[(2-chloro-4-fluorobenzoyl)amino]phenyl}-2-methyl-N^5-[2-(piperidin-1-yl)ethyl]-1H-imidazole-4,5-dicarboxamide] | 13 µM | –
0.42 µM | CNC(=O)c1nc[nH]c1C(=O)Nc1ccc(NC(=O)c2cc(Br)ccc2Cl)cc1 [Example 313, N^5-{4-[(5-bromo-2-chlorobenzoyl)amino]phenyl}-N^4-methyl-1H-imidazole-4,5-dicarboxamide] | 25 µM | –
0.01 µM | CN(C)CCNC(=O)c1nc[nH]c1C(=O)Nc1ccc(NC(=O)c2ccc(F)cc2Cl)c(F)c1 [Example 73, N^5-{4-[(2-chloro-4-fluorobenzoyl)amino]-3-fluorophenyl}-N^4-[2-(dimethylamino)ethyl]-1H-imidazole-4,5-dicarboxamide] | 33 µM | –
0.3 µM | CCNC(=O)c1nc[nH]c1C(=O)Nc1ccc(NC(=O)c2cnccc2Cl)cc1 [Example 263, N^5-(4-{[(4-chloropyridin-3-yl)carbonyl]amino}phenyl)-N^4-ethyl-1H-imidazole-4,5-dicarboxamide] | 27.5 µM | –
0.09 µM | CCNC(=O)c1nc[nH]c1C(=O)Nc1ccc(NC(=O)c2cc(OC)ccc2Cl)cc1 [Example 264, N^5-{4-[(2-chloro-5-methoxybenzoyl)amino]phenyl}-N^4-ethyl-1H-imidazole-4,5-dicarboxamide] | 16 µM | –
0.41 µM | CNC(=O)c1nc[nH]c1C(=O)Nc1ccc(NC(=O)c2cc(Cl)ccc2Cl)cc1 [Example 309, N^5-{4-[(2,5-dichlorobenzoyl)amino]phenyl}-N^4-methyl-1H-imidazole-4,5-dicarboxamide] | 38 µM | –
0.008 µM | O=C(Nc1ccc(NC(=O)c2ocnc2C(=O)NCCN2CCCCC2)cc1)c1ccc(F)cc1Cl [Example 303, N^5-{4-[(2-chloro-4-fluorobenzoyl)amino]phenyl}-N^4-[2-(piperidin-1-yl)ethyl]-1,3-oxazole-4,5-dicarboxamide] | 8.1 µM | –
0.04 µM | CN1CCCC(CNC(=O)c2[nH]cnc2C(=O)Nc2ccc(NC(=O)c3ccc(F)cc3Cl)cc2)C1 (stereo not drawn) [Example 298, N^4-{4-[(2-chloro-4-fluorobenzoyl)amino]phenyl}-N^5-[(1-methylpiperidin-3-yl)methyl]-1H-imidazole-4,5-dicarboxamide] | 17 µM | –
0.96 µM | CNC(=O)c1nc[nH]c1C(=O)Nc1ccc(NC(=O)c2ccc(Cl)cc2F)cc1 [Example 333, N^5-{4-[(4-chloro-2-fluorobenzoyl)amino]phenyl}-N^4-methyl-1H-imidazole-4,5-dicarboxamide] | 40 µM | –
2.1 µM | O=C(Nc1ccc(NC(=O)c2[nH]cnc2C(=O)N2CCOCC2)cc1)c1ccc(F)cc1Cl [Example 29, N-{4-[(2-chloro-4-fluorobenzoyl)amino]phenyl}-5-(morpholin-4-ylcarbonyl)-1H-imidazole-4-carboxamide] | – | ≥ 50 µM
0.68 µM | CN1CC2(C1)CN(C(=O)c1nc[nH]c1C(=O)Nc1ccc(NC(=O)c3ccc(F)cc3Cl)cc1)C2 [Example 46, N-{4-[(2-chloro-4-fluorobenzoyl)amino]phenyl}-4-[(6-methyl-2,6-diazaspiro[3.3]hept-2-yl)carbonyl]-1H-imidazole-5-carboxamide] | 12 µM | –
0.07 µM | CN1CCN(CC(C)(C)CNC(=O)c2nc[nH]c2C(=O)Nc2ccc(NC(=O)c3ccc(F)cc3Cl)cc2)CC1 [Example 415, N^5-{4-[(2-chloro-4-fluorobenzoyl)amino]phenyl}-N^4-[2,2-dimethyl-3-(4-methylpiperazin-1-yl)propyl]-1H-imidazole-4,5-dicarboxamide] | 7.8 µM | –
> 10 µM | CNC(=O)c1nc[nH]c1C(=O)Nc1ccc(NC(=O)c2c(Cl)cccc2C(F)(F)F)cc1 [Example 36, N^5-(4-{[2-chloro-6-(trifluoromethyl)benzoyl]amino}phenyl)-N^4-methyl-1H-imidazole-4,5-dicarboxamide] | – | ≥ 50 µM
0.53 µM | CNC(=O)c1nc[nH]c1C(=O)Nc1ccc(NC(=O)c2ccc(F)cc2Br)cc1 [Example 56, N^5-{4-[(2-bromo-4-fluorobenzoyl)amino]phenyl}-N^4-methyl-1H-imidazole-4,5-dicarboxamide] | 10 µM | –
> 10 µM | CNC(=O)c1nc[nH]c1C(=O)Nc1ccc(NC(=O)c2cncc(C)c2)cc1 [Example 366, N^4-methyl-N^5-(4-{[(5-methylpyridin-3-yl)carbonyl]amino}phenyl)-1H-imidazole-4,5-dicarboxamide] | – | –

Structure (SMILES) | IC50 (TNKS1) | IC50 [1, 2] | IC50 [1, 3]
O=C(Nc1ccc(NC(=O)c2[nH]cnc2C(=O)NCCN2CCCCC2)cc1)c1ccc(F)cc1Cl [Example 32, N^4-{4-[(2-chloro-4-fluorobenzoyl)amino]phenyl}-N^5-[2-(piperidin-1-yl)ethyl]-1H-imidazole-4,5-dicarboxamide] | 0.009 µM | 30 µM | 42 µM
